This is an account of results in patent US20140045823A1 (Neurocrine Biosciences, Inc., priority 2012, published 2014).

Molecules are shown by their SMILES.

The target of the test is T1, mutant form of the human GPR119 receptor (Homo sapiens, UniProt Q8TDV5, S329A/T327A).
T1 construct: expressed in transfected cells
T1 sequence (Q8TDV5 with tags, fused parts or gaps T327A/S329A): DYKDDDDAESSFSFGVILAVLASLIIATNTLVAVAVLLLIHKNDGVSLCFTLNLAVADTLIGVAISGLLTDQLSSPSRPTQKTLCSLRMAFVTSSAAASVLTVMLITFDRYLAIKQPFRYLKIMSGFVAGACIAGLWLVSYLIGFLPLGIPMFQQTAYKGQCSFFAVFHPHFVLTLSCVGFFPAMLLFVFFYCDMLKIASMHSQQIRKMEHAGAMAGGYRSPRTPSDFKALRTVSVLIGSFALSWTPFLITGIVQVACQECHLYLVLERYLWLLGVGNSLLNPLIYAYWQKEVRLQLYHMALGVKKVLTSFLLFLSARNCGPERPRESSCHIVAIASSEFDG
Nature of the test: LANCE cAMP-384 assay in HEK293 cells stably expressing a mutant form of the human GPR119 receptor. Type of test: cell-based. To be noted: mutant human GPR119, LANCE cAMP-384 Kit, 20 min at 37° C., read-out: EC50 (cAMP accumulation). How it is done: Quantitative detection of cAMP accumulation from cells expressing human GPR119 receptor is achieved using Perkin Elmer's LANCE cAMP-384 Kit (Cat#AD0264) according to the manufacturer's protocol. Briefly, HEK293 cells stably expressing a mutant form of the human GPR119 receptor as assay tool (Methionine 1 replaced with the amino acid sequence […], and T327 & S329 changed to alanines; SEQ ID No. 1) are grown to 50-70% confluency in cell culture media (DMEM, 10% heat inactivated Fetal Bovine Serum, 50 I.U./mL penicillin, 50 μg/mL streptomycin, 10 mM HEPES, 20 μg/mL G418 Sulfate). On the day of the assay, GPR119 stable HEK293 cells are lifted from the tissue culture plate and 1000 cells/well are incubated along with various concentrations of test compounds for 20 min at 37° C. Detection Buffer (50 mM HEPES, 10 mM calcium chloride, 0.35% Triton X-100, 1 mg/mL BSA) containing cAMP-specific antibody is then added to all wells and allowed to equilibrate in the dark for 10 minutes at room temperature. Upon equilibration, Detection Buffer containing europium-labeled cAMP tracer complex is added to all wells and allowed to react for 1 hour at room temperature. After 1 hour, bound europium-labeled cAMP tracer is measured using a Perkin Elmer Envision plate reader. The quantity of cAMP generated in each well is derived from a standard curve. EC50 is determined using nonlinear regression analysis of the cAMP values over a range of agonist concentration (12 points spanning the range from 30 μM to […]).
Background: In TR-FRET formats the signal depends on donor and acceptor labels being close together.
As a reminder, the EC50 is the concentration giving half of the maximal effect. Take `Cc1nnnn1-c1ccc(C(=O)N(C2CC2)C2CCN(C(=O)OC(C)C)CC2F)cn1` (single isomer, unassigned) [Example 249]: the EC50 was 0.146 µM.

For the molecule `CC(C)OC(=O)N1CC[C@@H](N(C(=O)c2cnc(-n3cncn3)cn2)C2CC2)[C@@H](F)C1` [Example 248], the 50% effective concentration (EC50) was found to be 0.054 µM.

As for `Cc1nccn1-c1ncc(C(=O)N(C2CC2)[C@@H]2CCN(C(=O)OC(C)C)C[C@@H]2F)cn1` [Example 250], the concentration for a half-maximal effect (EC50) stood at 0.045 µM.

`Cc1nccn1-c1ncc(C(=O)N(C2CC2)[C@H]2CCN(C(=O)OC(C)C)C[C@H]2F)cn1` [Example 251]: the EC50 came to 0.587 µM.

Consider `Cc1ncnn1-c1ccc(C(=O)N(C2CC2)[C@@H]2CCN(C(=O)OC(C)C)C[C@@H]2F)cn1` [Example 252], for which the half-maximal effective concentration (EC50) was found to be 0.193 µM.

`CC(C)OC(=O)N1CCC(N(C(=O)c2cnc(-n3cncn3)cn2)C2CC2)CC1` [Example 253]: the concentration for a half-maximal effect (EC50) amounted to 0.435 µM.

Turning to `Cc1nccn1-c1cnc(C(=O)N(C2CC2)C2CCN(C(=O)OC(C)C)CC2)cn1` [Example 254], the EC50 turned out to be 0.518 µM.

In the case of `Cc1ncn(-c2cnc(C(=O)N(C3CC3)C3CCN(C(=O)OC(C)C)CC3)cn2)n1` [Example 255], the EC50 was found to be 1.55 µM.

`Cc1nccn1-c1ncc(C(=O)N(C2CC2)C2CCN(C(=O)OC(C)C)CC2)cn1` [Example 256]: the 50% effective concentration (EC50) worked out at 0.265 µM.

For `CC(C)OC(=O)N1CC[C@H](N(C(=O)c2cnc(-n3cncn3)cn2)C2CC2)[C@H](F)C1` [Example 257], the EC50 came to 0.801 µM.
